In one experiment the target is T1, CXCR3 (Homo sapiens, UniProt P49682).
T1 construct: expressed in transfected cells; host or cells: HEK293 / HEK293T cells, stably transfected; membrane preparations
T1 sequence (P49682 1-368): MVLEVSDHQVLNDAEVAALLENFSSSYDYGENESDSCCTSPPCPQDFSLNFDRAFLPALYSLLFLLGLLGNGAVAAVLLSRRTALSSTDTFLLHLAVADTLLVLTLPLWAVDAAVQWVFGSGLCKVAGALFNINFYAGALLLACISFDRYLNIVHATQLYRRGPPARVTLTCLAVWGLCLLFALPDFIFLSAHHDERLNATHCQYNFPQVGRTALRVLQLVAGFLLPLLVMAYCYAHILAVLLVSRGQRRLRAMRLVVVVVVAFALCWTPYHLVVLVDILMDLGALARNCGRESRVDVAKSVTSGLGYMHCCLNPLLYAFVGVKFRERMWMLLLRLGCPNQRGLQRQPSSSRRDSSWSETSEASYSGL
Description: [35S]GTPγS incorporation assay. As to conditions: for CXCR3 Efficacy (%) ± SEM / Emax: % of CXCL11 mediated effect; for Emax: read-out: CXCR3 Efficacy (%) ± SEM; for CXCR3 pEC50 ± SEM: mean of three experiments in triplicate. It counts as biochemical. Here is the method: Membrane preparation for allosteric radioligand RAMX3 displacement and [^35S]GTPγS incorporation assays: The human embryonic kidney (HEK) cells stably expressing the human CXCR3 receptor were cultured in 150-mm cell culture plates in DMEM/F-12 supplemented with 10% fetal bovine serum (FBS), 2 mM L-glutamine, 1% penicillin-streptomycin, 300 µgmL^-1 Zeocin and incubated at 37 °C in a humid atmosphere with 5% CO2. At 100% confluency cells were washed with PBS twice, treated with Tris EDTA buffer (10 mM Tris, 0.5 mM EDTA, 5 mM KCl, 140 mM NaCl, pH 7.4), and harvested using a cell scraper. Cells were pelleted at 1100×g for 8 min at 4 °C, resuspended in Tris-EDTA-MgCl2 buffer (50mM Tris, 5 mM EDTA, 1.5 mM CaCl2, 5 mM MgCl2, 5 mM KCl, 120 mM NaCl, pH 7.4) and followed by lysis with an Ultra-Turrax. After centrifugation at 50,000•g, at 4°C for 18 min the membranes were resuspended in the binding buffer (50 mM Tris, 1 mM EDTA, 5 mM MgCl2 and subsequently homogenized with a glass-Teflon homogenizer (20 strokes). The homogenized membranes were shock-frozen in liquid nitrogen and stored at -80°C. The protein concentration was determined with the Lowry method with bovine serum albumin used as a standard.^35
[^35S]GTPγS incorporation assay: The [^35S]GTPγS incorporation assay was performed on membrane preparations of stably transfected HEK293 cells that expressed the CXCR3 receptor. The assay was carried out in 96-well plates at the final volume of 200 µL. The incubation buffer contained 20 mM HEPES, 10 mM MgCl2•6H20,100 mM NaCl and 100 mg/L saponin (pH 7.4). Membranes (30 µgmL^-1 of membrane protein), various concentrations of test compound and CXCL11, and 1 µM GDP were preincubated in the absence of [^35S]GTPγS for 30 min at 37 °C. After the addition of 0.10 nM [^35S]GTPγS membranes were incubated for additional 30 min at 37 °C. Incubation was terminated by filtration through Whatman GF/B filters soaked with ice cold PBS. The filter-bound radioactivity was measured as described above. Three to four experiments per compound were performed with each concentration in triplicate.
The activation of G proteins was explored in terms of CXCR3 mediated [^35S]GTPγS incorporation. In the [^35S]GTPγS incorporation assay the membrane preparations of HEK293T cells stably expressing CXCR3 were used. The activation of G proteins was monitored as the incorporation of [^35S]GTPγS and thus increase in the incorporated radioactivity. The potency and efficacy of the novel compounds was first compared to the reference compound 46/VUF10661. […] Table 1. The ability of the 46/VUF10661 based positive allosteric modulators to activate CXCR3 as measured in the [35S]GTPγS incorporation assay.[a]
On the technique in general: GTPγS is a poorly hydrolysed GTP analogue; its binding reports G protein activation.

A further experiment has as its target T2, CXCR3-PK1 (Homo sapiens, UniProt P49682).
T2 construct: expressed in transfected cells; host or cells: HEK293 cells stably expressing beta-gal enzyme acceptor (PathHunter, DiscoveRx), transiently transfected
T2 sequence (P49682 1-368): T1 sequence (P49682 1-368)
The experiment in a line: β-arrestin 2 recruitment assay (PathHunter, DiscoveRx), CXCR3-PK1 construct. In kind it is cell-based. Particulars: for Emax: read-out: CXCR3-PK1 efficacy (%) (converted); for CXCR3-PK1 pEC50 ± SEM: HEK293-T cells, PathHunter, two to three experiments in triplicate. Here is the method:
(§1) β-arrestin 2 recruitment assay: The measurement of β-arrestin recruitment was performed utilizing the PathHunter assay purchased from DiscoveRx (DiscoveRx, Birmingham, U.K.) according to the manufacturer's protocol. HEK293 cells stably expressing β-gal enzyme acceptor were transiently transfected with the ProLink (PK1) tagged wildtype CXCR3 receptor using the TransIT-293 transfection reagent from Mirus (purchased from MoBiTec, Goettingen, Germany). The assay was carried out in 384-well plates containing 2000 cells in 20 µL. After incubation at 37°C (5% CO2, 95% relative humidity) overnight, various concentrations of test compounds or CXCL11 (prepared in PBS, pH 7.4, containing 0.20% BSA) were added and the incubation continued for 4 h. Detection mix was then added and incubated for further 60 min at room temperature. Chemiluminescence was determined with a microplate reader Clariostar (BMG labtech, Ortenberg, Germany).
(§2) The ability of the novel ligands according to the present invention to induce CXCR3-mediated β-arrestin 2 recruitment was investigated in the assay system PathHunter (DiscoveRx), which detects the recruitment of β-amestin 2 to the activated receptor using β-galactosidase (β-gal) enzyme fragment complementation. The inventors used two different ProLink tags, ProLink1 (PK1) and ProLink2 (PK2), of which PK2 has higher affinity for the enzyme acceptor to detect weak protein-protein interactions. The CXCR3-PK2 construct is readily able to detect the differences in the propensity of CXCL11 and CXCL10 to induce β-arrestin 2 recruitment at CXCR3. […] Table 3. Ability of the 46/VUF10661 based positive allosteric modulators to activate the CXCR3 as measured in the β-arrestin 2 recruitment assay (PathHunter, DiscoveRx).[a]
Background: Arrestin recruitment assays detect the binding of arrestin to an activated receptor.

The next experiment addresses T3, CXCR3-PK2 (Homo sapiens, UniProt P49682).
T3 construct: expressed in transfected cells
T3 sequence (P49682 1-368): T1 sequence (P49682 1-368)
The experiment in a line: β-arrestin 2 recruitment assay (PathHunter, DiscoveRx), CXCR3-PK2 construct. In kind it is cell-based. As to conditions: CXCR3-PK2; for Emax: % of CXCL11 mediated effect, read-out: CXCR3-PK2 efficacy (%) (converted); for CXCR3-PK2 pEC50 ± SEM: HEK293-T cells, PathHunter. Here is the method: as §1, §2
To investigate the efficacy of identified partial agonists in the assay format, the inventors used the CXCR3-PK2 construct, which is characterized by higher sensitivity to detect β-arrestin 2 recruitment. The compounds which appeared as weak partial agonists under CXCR3-PK1 conditions appeared as strong partial agonists under CXCR3-PK2 conditions with the efficacy increased up to 80% (Table 4). FAUC1036 reached the efficacy of 66%. […] Table 4. Ability of the compound 5 based positive allosteric modulators to activate the CXCR3 as measured in the β-arrestin 2 recruitment assay (PathHunter, DiscoveRx).[a]

[1] abbreviates: membrane preparations of HEK293T stably expressing CXCR3.
Setting [2] is: % of CXCL11 mediated effect, CXCR3-PK1.

Where “and” joins values, the source holds several entries; their conditions need not be identical. Identical values can stand only once.

Turning to `CC(C)(C)OC(=O)N[C@@H](CCCCNC(=O)[C@@H]1Cc2ccccc2CN1)C(=O)NCC(c1ccccc1)c1ccccc1` [Compound 5, Tert-butyl ((S)-1-((2,2-diphenylethyl)amino)-1-oxo-6-((S)-1,2,3,4-tetrahydroisoquinoline-3-carboxamido)hexan-2-yl)carbamate], at CXCR3 (setting [1]), the “CXCR3 Efficacy (%) ± SEM” value worked out at 34±8%; the Emax is 34%; the “CXCR3 pEC50 ± SEM” value is 5.7 ± 0.34 and 5.66±0.34. On CXCR3 (membrane preparations of HEK293T stably expressing CXCR3, read-out: EC50 / potency in [35S]GTPγS incorporation), the EC50 was determined as 2200 nM. At CXCR3-PK1 (setting [2]), the “CXCR3-PK1 efficacy (%)” value turned out to be 31±2% and the Emax is 31%. At CXCR3-PK1 (CXCR3-PK1), the “CXCR3-PK1 pEC50 ± SEM” value amounted to 6.50±0.17. For the same molecule, on CXCR3-PK2, the Emax is 79% and the “CXCR3-PK2 pEC50 ± SEM” value was found to be 6.71±0.33.
For the molecule `N[C@@H](CCCCNC(=O)[C@@H]1Cc2ccccc2CN1)C(=O)NCC(c1ccccc1)c1ccccc1.O=C(O)C(F)(F)F.O=C(O)C(F)(F)F` [Compound 28, (S)-3-(((S)-5-ammonio-6-((2,2-diphenylethyl)amino)-6-oxohexyl)carbamoyl)-1,2,3,4-tetrahydroisoquinolin-2-ium 2,2,2-trifluoroacetate], at CXCR3 (setting [1]), the Emax came out at 40 ± 7% and the “CXCR3 pEC50 ± SEM” value was determined as 5.65±0.23. In addition, the Emax on CXCR3-PK1 (setting [2]) was 14%. In addition, the “CXCR3-PK1 pEC50 ± SEM” value on CXCR3-PK1 (CXCR3-PK1) was found to be 6.80±0.45. At CXCR3-PK2, the Emax was 85% and the “CXCR3-PK2 pEC50 ± SEM” value amounted to 6.55±0.26.
Take `CC(C)(C)OC(=O)N[C@@H](CCCCNC(=O)[C@@H]1Cc2ccccc2CN1C(=O)CCC(=O)O)C(=O)NCC(c1ccccc1)c1ccccc1` [Compound 27, 4-((S)-3-(((S)-5-((tert-butoxycarbonyl)amino)-6-((2,2-diphenylethyl)amino)-6-oxohexyl)carbamoyl)-3,4-dihydroisoquinolin-2(1H)-yl)-4-oxobutanoic acid]: on CXCR3 (setting [1]), the “CXCR3 Efficacy (%) ± SEM” value is recorded as “No effect” and the “CXCR3 pEC50 ± SEM” value is “No effect”. Moreover, the “β-arrestin 2 recruitment, intrinsic agonism (result in words)” value on CXCR3-PK1 was “no agonistic effect”. For the same molecule, the “CXCR3-PK1 pEC50 ± SEM” value at CXCR3-PK1 (CXCR3-PK1) is listed as “No effect”. Moreover, the “CXCR3-PK2 pEC50 ± SEM” value at CXCR3-PK2 is listed as “No effect”.
As to `N[C@@H](CCCCNC(=O)[C@@H]1Cc2ccccc2CN1C(=O)CCC(=O)c1ccccc1)C(=O)NCC(c1ccccc1)c1ccccc1.O=C(O)C(F)(F)F` [Compound 25, (S)-1-((2,2-diphenylethyl)amino)-1-oxo-6-((S)-2-(4-oxo-4-phenylbutanoyl)-1,2,3,4-tetrahydroisoquinoline-3-carboxamido)hexan-2-aminium 2,2,2-trifluoroacetate], on CXCR3 (setting [1]), the “CXCR3 Efficacy (%) ± SEM” value was “No effect” and the “CXCR3 pEC50 ± SEM” value was “No effect”. Moreover, the “CXCR3 mediated G protein activation (result in words)” value on CXCR3 ([35S]GTPγS incorporation) was “failed to induce CXCR3 mediated G protein activation”. Besides, the Emax at CXCR3-PK1 (setting [2]) was 17%. Besides, the “CXCR3-PK1 pEC50 ± SEM” value at CXCR3-PK1 (CXCR3-PK1) turned out to be 6.80±0.21. Moreover, at CXCR3-PK2, the Emax is 27% and the “CXCR3-PK2 pEC50 ± SEM” value is on record as 6.51±0.34.
`N[C@@H](CCCCNC(=O)[C@@H]1Cc2ccccc2CN1C(=O)CCCC(=O)c1ccccc1)C(=O)NCC(c1ccccc1)c1ccccc1.O=C(O)C(F)(F)F` [Compound 26, (S)-1-((2,2-diphenylethyl)amino)-1-oxo-6-((S)-2-(5-oxo-5-phenylpentanoyl)-1,2,3,4-tetrahydroisoquinoline-3-carboxamido)hexan-2-aminium 2,2,2-trifluoroacetate]: at CXCR3 (setting [1]), the “CXCR3 Efficacy (%) ± SEM” value is given as “No effect” and the “CXCR3 pEC50 ± SEM” value is given as “No effect”. Moreover, on CXCR3-PK1 (setting [2]), the Emax is 20%. For the same molecule, the “CXCR3-PK1 pEC50 ± SEM” value on CXCR3-PK1 (CXCR3-PK1) came out at 6.73±0.22. Also, at CXCR3-PK2, the Emax was 91% and the “CXCR3-PK2 pEC50 ± SEM” value came to 6.90±0.21.
For `CC(C)(C)OC(=O)NCCCC[C@@H](NC(=O)[C@@H]1Cc2ccccc2CN1C(=O)CCC(=O)c1ccccc1)C(=O)NCC(c1ccccc1)c1ccccc1` [Compound 45, Tert-butyl ((R)-6-((2,2-diphenylethyl)amino)-6-oxo-5-((S)-2-(4-oxo-4-phenylbutanoyl)-1,2,3,4-tetrahydroisoquinoline-3-carboxamido)hexyl)carbamate], at CXCR3 (setting [1]), the Emax was 33 ± 7% and the “CXCR3 pEC50 ± SEM” value is 5.97±0.34. Moreover, the Emax at CXCR3-PK1 (setting [2]) is approximately 36%. For the same molecule, the “CXCR3-PK1 pEC50 ± SEM” value on CXCR3-PK1 (CXCR3-PK1) is recorded as 6.63±0.17. For the same molecule, at CXCR3-PK2, the Emax is 30% and the “CXCR3-PK2 pEC50 ± SEM” value was determined as 7.23±0.69.
For `CC(C)(C)OC(=O)N[C@@H](CCCCNC(=O)[C@@H]1Cc2ccccc2CN1C(=O)CCc1ccccc1)C(=O)NCC(c1ccccc1)c1ccccc1` [Compound 23, Tert-butyl((S)-1-((2,2-diphenylethyl)amino)-1-oxo-6-((S)-2-(3-phenylpropanoyl)-1,2,3,4-tetrahydroisoquinoline-3-carboxamido)hexan-2-yl)carbamate], at CXCR3 (setting [1]), the Emax turned out to be 30 ± 17% and the “CXCR3 pEC50 ± SEM” value amounted to 5.07±0.50. The Emax at CXCR3-PK1 (setting [2]) is 19%. Also, on CXCR3-PK1 (CXCR3-PK1), the “CXCR3-PK1 pEC50 ± SEM” value was determined as 7.21±0.17. On CXCR3-PK2, the Emax was 29% and the “CXCR3-PK2 pEC50 ± SEM” value came to 6.71±0.30.

The record behind these values is patent publication EP3156398A1, “AGONISTS OF THE CHEMOKINE RECEPTOR CXCR3” (Friedrich-Alexander-Universität Erlangen-Nürnberg, priority 2015, dated 2017).
